Where “and” joins values, the source holds several entries; their conditions need not be identical. Equal values may be shown once.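 Cultured in 96-well plates, cells were exposed to test compound for 48 hours across five concentrations. Abbreviation: GI50, concentration required for 50% inhibition of growth. The concentration for full growth arrest is given as TGI.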 *1 amine or outer side, *2 acyl side, *3 side chain or, on linkers, in order; H or OH if unused. Where a SMILES comes first, the peptide text is derived from it. Bridges are numbered along the chain shown (N, C = ends). [ ]: non-standard residue; d: D form. ξ: configuration not given here. X4 = CCC(C)C(N[*:1])C(O)CC(=O)O[C@H](C(=O)C(C)C(=O)[*:2])C(C)C; NMeY = CN[C@@H](Cc1ccc(O)cc1)C(=O)O; X9 = O=C([C@@H]1CC(O)CN1[*:1])[*:2]; ξNMeL = CNC(CC(C)C)C(=O)O; ξT = CC(O)C(N)C(=O)O
What was measured:
Experiment in all cases: NCI tumour cell line growth inhibition, 48 h
[1] = tested on: OVCAR-3 ovarian
[2] = tested on: U251 CNS
[3] = tested on: NCI-H226 lung
[4] = tested on: BT-549 breast
[5] = tested on: HCC-2998 colon
[6] = tested on: HOP-62 NSCLC
[7] = tested on: KM12 colon
[8] = tested on: DU-145 prostate
[9] = tested on: SK-OV-3 ovarian
[10] = tested on: UO-31 renal

SMILES	GI50 [1]	TGI [1]	GI50 [2]	TGI [2]	GI50 [3]	TGI [3]	GI50 [4]	TGI [4]	GI50 [5]	TGI [5]	GI50 [6]	TGI [6]	GI50 [7]	TGI [7]	GI50 [8]	TGI [8]	GI50 [9]	TGI [9]	GI50 [10]	TGI [10]
O=[N+]([O-])c1cccc(-c2nc3sccn3c2-c2ccnc(NCCCNS(=O)(=O)c3ccc(F)cc3)n2)c1	2.31 µM	8.49 µM	3.73 µM	> 100 µM	1.95 µM	7.6 µM	2.14 µM	7.03 µM	7.29 µM	> 100 µM	3.16 µM	9.61 µM	2.59 µM	7.91 µM	2.65 µM	12.9 µM	4.17 µM	> 100 µM	1.4 µM	8.39 µM
N#Cc1nc(-c2cccc(Br)c2)cc(-c2ccc(Nc3nc(N4CCCCC4)nc(N4CCCCC4)n3)cc2)c1N	1.76 µM	3.54 µM	1.72 µM	3.38 µM	1.85 µM	3.94 µM	2.02 µM	4.36 µM	2.31 µM	6.62 µM	2.64 µM	8.76 µM	1.91 µM	3.91 µM	3.13 µM	10.2 µM	19.1 µM	> 100 µM	1.68 µM	5.47 µM
O=C(Oc1ccccc1)c1cc(O)c(O)c(O)c1	4.34 µM	47.3 µM	10.7 µM	> 100 µM	12.9 µM	> 100 µM	15.6 µM	83.2 µM	13.5 µM	44.3 µM	5.13 µM	70.3 µM	11.5 µM	> 100 µM	15.7 µM	> 100 µM	9.22 µM	> 100 µM	2.93 µM	> 100 µM
O=C1C(NCCO)=C(N2CC2)C(=O)C(NCCO)=C1N1CC1		> 75.8 µM		> 71.6 µM		> 94.4 µM		> 100 µM		> 100 µM		66.7 µM		> 100 µM		> 100 µM		> 88 µM		> 88 µM
OCCNc1nc(NCCO)nc(Nc2ccc(C3=NN(c4cc(Cl)cc(Cl)c4)C(c4ccc(Cl)cc4)C3)cc2)n1 (stereo not drawn)	1.75 µM	3.19 µM	1.51 µM	3.04 µM	2.45 µM	5.48 µM	1.77 µM	3.8 µM	1.96 µM	3.52 µM			1.85 µM	4 µM	1.67 µM	3.22 µM	2.31 µM	5.15 µM	1.63 µM	3.16 µM
CCC(C)C1NC(=O)C(NC(=O)C(CC(C)C)N(C)C(=O)[C@@H]2CC(O)CN2)C(C)OC(=O)[C@H](Cc2ccc(OC)cc2)N(C)C(=O)[C@@H]2CCCN2C(=O)[C@H](CC(C)C)NC(=O)C(C)C(=O)[C@H](C(C)C)OC(=O)CC1O (stereo partly drawn) (H-[X9][ξNMeL][ξT][X4]LP[NMeY](Me); ester 3-C)	0.0166 µM	0.11 µM and 0.295 µM		0.335 µM and 1.01 µM	0.0302 µM	0.0804 µM and 0.355 µM		0.0575 µM and 0.0866 µM		0.101 µM and 0.133 µM		0.154 µM		0.105 µM	0.0149 µM	0.398 µM and 0.55 µM		0.349 µM and 0.0464 µM	0.711 µM	0.954 µM and 7.18 µM
COc1nccc(-c2c(-c3ccc(F)cc3)ncn2C2CCC(O)CC2)n1 (stereo not drawn)	> 82 µM	> 100 µM	> 86.9 µM	> 100 µM	> 77.8 µM	> 100 µM	> 100 µM	> 100 µM	> 100 µM	> 100 µM	99 µM	> 100 µM	> 85.6 µM	> 100 µM	72.8 µM	> 100 µM	57.3 µM	> 100 µM	10.1 µM	> 100 µM
CCCCCCN1C(=O)/C(=c2\sc3n(c2=O)C2C(NN=3)N(CC)C(=O)N2CC)c2ccccc21 (stereo not drawn)	0.966 µM	2.06 µM					6.34 µM	> 50 µM	5.83 µM	> 50 µM	1.71 µM	> 50 µM	1.46 µM	> 50 µM	2.52 µM	> 50 µM	2.67 µM	> 50 µM	1.43 µM	> 50 µM
Cc1c(C(=O)/C=C/c2ccc(O)cc2)nnn1-c1ccnc2c(C(F)(F)F)cccc12	19.5 µM	> 100 µM	5.14 µM	69.8 µM	27.3 µM	> 100 µM	60.2 µM	> 100 µM	20.9 µM	> 100 µM	67.7 µM	> 100 µM	8.92 µM	> 100 µM	30.1 µM	> 100 µM	15.1 µM	72.5 µM	41.9 µM	> 100 µM
COc1cc(N2CCC(N(C)C)CC2)ccc1Nc1ncc(Cl)c(Nc2ccccc2P(C)(C)=O)n1	1.73 µM and 0.728 µM	11.3 µM and 7.01 µM	1.42 µM and 0.713 µM	9.94 µM and > 10 µM	0.454 µM and 0.0582 µM	2.76 µM and 4.21 µM	2.98 µM and 0.791 µM	9.97 µM and 4.35 µM	3.6 µM and 0.446 µM	> 52.2 µM	0.384 µM and 0.232 µM	4.72 µM and > 10 µM		> 30 µM	0.972 µM and 0.545 µM	> 25.2 µM and 3.8 µM	0.517 µM and 0.43 µM	2.01 µM and > 4.16 µM	1.82 µM and 0.752 µM	4.73 µM and 4.59 µM
COc1ccc(/C=C/C(=O)c2ccc(Nc3ncnc4ccccc34)cc2)cc1OC	5.1 µM	> 100 µM	3.66 µM	> 100 µM	3.53 µM	31.9 µM	3.22 µM	32 µM	3.22 µM	11.8 µM	9.87 µM	66.5 µM	3.45 µM	> 100 µM	8.16 µM	> 100 µM	4.23 µM	35.5 µM	4.57 µM	68.3 µM
COC(=O)Nc1ccc2ccc3c(NC(=O)OC)ccc4ccc1c2c43 (tested in a mixture with another compound)	10.6 µM	45.2 µM	12 µM	> 50 µM	9.2 µM	31.3 µM	5.5 µM	14 µM	9.99 µM	37.9 µM	7.91 µM	25.4 µM	3.4 µM	> 50 µM	14.8 µM	> 50 µM	11.6 µM	> 50 µM	5.21 µM	18.3 µM
CCCCCCC(C)CC(CCCCCC)NCCOC(=O)c1ccc([N+](=O)[O-])cc1 (stereo not drawn)	7.59 µM and 2.95 µM	23.6 µM and 17.5 µM		29.2 µM and 25.2 µM		29.4 µM and 28.6 µM		31.6 µM and 30.5 µM		42.8 µM and 9.35 µM		33.7 µM and 30.7 µM		27.9 µM and 23.7 µM		30.1 µM and 25.6 µM		31.8 µM and 30.4 µM		23.8 µM and 22.2 µM
Clc1nc(Cl)c2ncn(C/C=C\Cn3cnc4c(Cl)nc(Cl)nc43)c2n1	1.37 µM	2.69 µM	3.5 µM	10.6 µM	2.53 µM	6.23 µM	2.03 µM	5.01 µM	1.67 µM	3.45 µM	1.74 µM	4.71 µM	1.71 µM	3.2 µM	1.54 µM	2.89 µM	7.03 µM	20.3 µM	3.38 µM	10.3 µM
N#Cc1c(NC(=O)c2cccs2)[n+]([O-])c2ccccc2[n+]1[O-]	> 100 µM	> 100 µM	> 100 µM	> 100 µM	86.4 µM	> 100 µM	> 100 µM	> 100 µM	> 100 µM	> 100 µM	> 100 µM	> 100 µM	> 100 µM	> 100 µM	> 100 µM	> 100 µM	26 µM	> 100 µM	> 100 µM	> 100 µM
O=C(CNC(=O)c1cccc2ccccc12)Nc1ccccc1Oc1cccc(O)c1	1.5 µM	> 25 µM	8.41 µM	> 25 µM	> 25 µM	> 25 µM	> 25 µM	> 25 µM	> 25 µM	> 25 µM	8.22 µM	> 25 µM	2.18 µM	> 25 µM	9.47 µM	> 25 µM	13 µM	> 25 µM	16.5 µM	> 25 µM
C[C@]12CC[C@H]3[C@@H](CCC4=CC(=O)CC[C@@H]43)[C@@H]1CC[C@@H]2OC1(O)C(=O)c2ccccc2C1=O		> 100 µM		> 100 µM		> 100 µM		> 100 µM		> 100 µM		> 100 µM		> 100 µM		66.7 µM		> 100 µM		78.3 µM
COc1cc(C)cc2c1OC(c1ccccc1)CC2=O (stereo not drawn)	> 100 µM	> 100 µM	> 100 µM	> 100 µM	> 100 µM	> 100 µM	> 100 µM	> 100 µM	> 100 µM	> 100 µM	> 100 µM	> 100 µM	> 100 µM	> 100 µM	> 100 µM	> 100 µM	> 100 µM	> 100 µM	> 100 µM	> 100 µM
FC(F)(F)c1ccc2c(c1)N(CCCN1CCN(C3CC3)CC1)c1ccccc1S2	7.11 µM	20.3 µM	4.94 µM	18 µM	10.7 µM	23.4 µM	16.7 µM	35.4 µM	13.6 µM	27.5 µM	14.4 µM	27.8 µM	7.68 µM	21 µM	13.8 µM	28.6 µM	12.9 µM	26.6 µM	8.13 µM	22.9 µM
CCOC(=O)C1CCC/C1=N\N=C(N)N (stereo not drawn) (tested in a mixture with another compound)		> 100 µM		> 100 µM		> 100 µM		> 100 µM		> 100 µM		> 100 µM		> 100 µM		> 100 µM		> 100 µM		> 100 µM
CC1C(=O)N=C2C(=CN(Cc3ccccc3)c3ccccc32)C(=O)N1C (stereo not drawn)		> 100 µM		> 100 µM		> 100 µM		> 100 µM		> 100 µM				> 100 µM		> 100 µM				> 100 µM
O=c1c2cc(Br)ccc2oc2ccc(Br)cc12		> 100 µM		> 100 µM		> 100 µM		> 100 µM		> 100 µM				> 100 µM		> 100 µM				> 100 µM
CC1(C)OC2C(CO)OC(n3ccc(=O)[nH]c3=O)C2O1 (stereo not drawn)		> 100 µM		> 100 µM		> 100 µM		> 100 µM		> 100 µM		> 100 µM				> 100 µM		> 100 µM		> 100 µM
COc1n[n+]([O-])c(C)cc1[N+](=O)[O-]	8.44 µM	28.4 µM	16.8 µM	34.5 µM	24.4 µM	63.3 µM	18.9 µM	33.2 µM	14.3 µM	27.6 µM	16.6 µM	31.5 µM	11.4 µM	30.3 µM	15.7 µM	29.3 µM			12.6 µM	25.4 µM
N#C/C(=C\c1cn(-c2ccccc2)c2ccccc12)C(=O)O	18.8 µM	43.9 µM	35 µM	> 100 µM			36.6 µM	> 100 µM	49.5 µM	> 100 µM	39.2 µM	> 100 µM	30.1 µM	> 100 µM	44.2 µM	> 100 µM	71.4 µM	> 100 µM	23.8 µM	> 100 µM
COc1ccc(C2=NNC(c3ccc(-c4ccc(OC)cc4[N+](=O)[O-])o3)C2)cc1 (stereo not drawn)	21 µM	62.2 µM	19.4 µM	50.3 µM			26.6 µM	93.5 µM	36.9 µM	> 100 µM	30.6 µM	> 100 µM	27.4 µM	> 100 µM	36.3 µM	> 100 µM	49.7 µM	> 100 µM	> 100 µM	> 100 µM
COc1ccc(-c2ccc(/C=N/n3cn[nH]c3=S)o2)c([N+](=O)[O-])c1	33.9 µM	> 100 µM					30.1 µM	> 100 µM	38.9 µM	> 100 µM	62.2 µM	> 100 µM	27.2 µM	> 100 µM	80.5 µM	> 100 µM	45.5 µM	> 100 µM	54.4 µM	> 100 µM
